In PubChem BioAssay (NCI):
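Tested at 5 concentrations; 48 h exposure; 96-well plates; endpoints linearly interpolated, else capped at highest concentration. Definition used: TGI = concentration required for complete inhibition of growth.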

What was measured:
Experiment in all cases: inhibition of tumour cell growth, NCI panel, 48 h
OVCAR-8 ovarian = system: OVCAR-8 ovarian
U251 CNS = system: U251 CNS
EKVX NSCLC = system: EKVX NSCLC
K-562 leukemia = system: K-562 leukemia
RXF 393 renal = system: RXF 393 renal
M19-MEL melanoma = system: M19-MEL melanoma
SK-MEL-2 melanoma = system: SK-MEL-2 melanoma
CCRF-CEM leukemia = system: CCRF-CEM leukemia
SNB-19 CNS = system: SNB-19 CNS
MALME-3M melanoma = system: MALME-3M melanoma
SF-539 CNS = system: SF-539 CNS
LOX IMVI melanoma = system: LOX IMVI melanoma
HCT-116 colon = system: HCT-116 colon
HOP-92 NSCLC = system: HOP-92 NSCLC
NCI-H23 lung = system: NCI-H23 lung
SK-OV-3 ovarian = system: SK-OV-3 ovarian
UO-31 renal = system: UO-31 renal
NCI-H460 lung = system: NCI-H460 lung
HOP-18 NSCLC = system: HOP-18 NSCLC
NCI-H226 lung = system: NCI-H226 lung
SK-MEL-5 melanoma = system: SK-MEL-5 melanoma
SNB-78 CNS = system: SNB-78 CNS
SW-620 colon = system: SW-620 colon
SR leukemia = system: SR leukemia
SN12C renal = system: SN12C renal
RPMI-8226 leukemia = system: RPMI-8226 leukemia
HL-60(TB) leukemia = system: HL-60(TB) leukemia
SF-268 CNS = system: SF-268 CNS
KM12 colon = system: KM12 colon
HT29 colon = system: HT29 colon
786-0 renal = system: 786-0 renal
A549 NSCLC = system: A549 NSCLC
COLO 205 colon = system: COLO 205 colon
DMS 273 small cell lung = system: DMS 273 small cell lung
ACHN renal = system: ACHN renal
SK-MEL-28 melanoma = system: SK-MEL-28 melanoma
RXF-631 renal = system: RXF-631 renal
M14 melanoma = system: M14 melanoma
OVCAR-3 ovarian = system: OVCAR-3 ovarian
OVCAR-4 ovarian = system: OVCAR-4 ovarian
KM20L2 colon = system: KM20L2 colon
UACC-62 melanoma = system: UACC-62 melanoma
TK-10 renal = system: TK-10 renal
LXFL 529 NSCLC = system: LXFL 529 NSCLC
SF-295 CNS = system: SF-295 CNS
CAKI-1 renal = system: CAKI-1 renal
UACC-257 melanoma = system: UACC-257 melanoma
XF 498 CNS = system: XF 498 CNS
IGROV1 ovarian = system: IGROV1 ovarian
A498 renal = system: A498 renal
HOP-62 NSCLC = system: HOP-62 NSCLC
OVCAR-5 ovarian = system: OVCAR-5 ovarian
HCC-2998 colon = system: HCC-2998 colon
HCT-15 colon = system: HCT-15 colon
SNB-75 CNS = system: SNB-75 CNS
DLD-1 colon = system: DLD-1 colon
NCI-H522 lung = system: NCI-H522 lung
MOLT-4 leukemia = system: MOLT-4 leukemia

**Q.** Which TGI (OVCAR-8 ovarian) does the source give for `CCOc1ccc(NC(=O)CC2C(=O)Nc3ccccc3S2=O)cc1` (stereo not drawn) here?
**A.** > 85.8 µM

**Q.** And the TGI (U251 CNS)?
**A.** > 75.4 µM

**Q.** What about the TGI (EKVX NSCLC) of the same molecule?
**A.** > 46.4 µM

**Q.** What about the TGI (K-562 leukemia) of the same molecule?
**A.** > 100 µM

**Q.** What about the TGI (RXF 393 renal) of the same molecule?
**A.** 66.9 µM

**Q.** What about the TGI (M19-MEL melanoma) of the same molecule?
**A.** > 100 µM

**Q.** What about the TGI (SK-MEL-2 melanoma) of the same molecule?
**A.** > 100 µM

**Q.** And the TGI (CCRF-CEM leukemia)?
**A.** > 100 µM

**Q.** What about the TGI (SNB-19 CNS) of the same molecule?
**A.** > 89.3 µM

**Q.** And the TGI (MALME-3M melanoma)?
**A.** > 100 µM

**Q.** And the TGI (SF-539 CNS)?
**A.** > 100 µM

**Q.** And the TGI (LOX IMVI melanoma)?
**A.** > 100 µM

**Q.** And the TGI (HCT-116 colon)?
**A.** > 100 µM

**Q.** And the TGI (HOP-92 NSCLC)?
**A.** > 70.6 µM

**Q.** And the TGI (NCI-H23 lung)?
**A.** > 100 µM

**Q.** And the TGI (SK-OV-3 ovarian)?
**A.** > 100 µM

**Q.** What about the TGI (UO-31 renal) of the same molecule?
**A.** > 83.1 µM

**Q.** And the TGI (NCI-H460 lung)?
**A.** > 100 µM

**Q.** What about the TGI (HOP-18 NSCLC) of the same molecule?
**A.** > 100 µM

**Q.** What about the TGI (NCI-H226 lung) of the same molecule?
**A.** > 86.7 µM

**Q.** And the TGI (SK-MEL-5 melanoma)?
**A.** > 100 µM

**Q.** And the TGI (SNB-78 CNS)?
**A.** > 100 µM

**Q.** And the TGI (SW-620 colon)?
**A.** > 100 µM

**Q.** And the TGI (SR leukemia)?
**A.** > 88.5 µM

**Q.** And the TGI (SN12C renal)?
**A.** > 100 µM

**Q.** What about the TGI (RPMI-8226 leukemia) of the same molecule?
**A.** > 100 µM

**Q.** And the TGI (HL-60(TB) leukemia)?
**A.** > 100 µM

**Q.** And the TGI (SF-268 CNS)?
**A.** > 100 µM

**Q.** And the TGI (KM12 colon)?
**A.** > 100 µM

**Q.** What about the TGI (HT29 colon) of the same molecule?
**A.** > 100 µM

**Q.** What about the TGI (786-0 renal) of the same molecule?
**A.** > 76.6 µM

**Q.** And the TGI (A549 NSCLC)?
**A.** > 100 µM

**Q.** What about the TGI (COLO 205 colon) of the same molecule?
**A.** > 100 µM

**Q.** And the TGI (DMS 273 small cell lung)?
**A.** > 100 µM

**Q.** What about the TGI (ACHN renal) of the same molecule?
**A.** > 86.7 µM

**Q.** And the TGI (SK-MEL-28 melanoma)?
**A.** > 100 µM

**Q.** And the TGI (RXF-631 renal)?
**A.** > 100 µM

**Q.** What about the TGI (M14 melanoma) of the same molecule?
**A.** > 100 µM

**Q.** And the TGI (OVCAR-3 ovarian)?
**A.** > 78.7 µM

**Q.** What about the TGI (OVCAR-4 ovarian) of the same molecule?
**A.** > 70.2 µM

**Q.** What about the TGI (KM20L2 colon) of the same molecule?
**A.** > 46.4 µM

**Q.** What about the TGI (UACC-62 melanoma) of the same molecule?
**A.** > 46.4 µM

**Q.** What about the TGI (TK-10 renal) of the same molecule?
**A.** > 96.2 µM

**Q.** What about the TGI (LXFL 529 NSCLC) of the same molecule?
**A.** > 100 µM

**Q.** And the TGI (SF-295 CNS)?
**A.** > 100 µM

**Q.** And the TGI (CAKI-1 renal)?
**A.** > 92.9 µM

**Q.** What about the TGI (UACC-257 melanoma) of the same molecule?
**A.** > 100 µM

**Q.** And the TGI (XF 498 CNS)?
**A.** 74.4 µM

**Q.** What about the TGI (IGROV1 ovarian) of the same molecule?
**A.** > 100 µM

**Q.** What about the TGI (A498 renal) of the same molecule?
**A.** > 78.5 µM

**Q.** And the TGI (HOP-62 NSCLC)?
**A.** > 100 µM

**Q.** What about the TGI (OVCAR-5 ovarian) of the same molecule?
**A.** > 100 µM

**Q.** What about the TGI (HCC-2998 colon) of the same molecule?
**A.** > 100 µM

**Q.** And the TGI (HCT-15 colon)?
**A.** > 100 µM

**Q.** What about the TGI (SNB-75 CNS) of the same molecule?
**A.** 50.6 µM

**Q.** And the TGI (DLD-1 colon)?
**A.** > 100 µM

**Q.** What about the TGI (NCI-H522 lung) of the same molecule?
**A.** > 100 µM

**Q.** What about the TGI (MOLT-4 leukemia) of the same molecule?
**A.** > 100 µM
